Measured values as given in PMC10056899, “Neuroprotective and Antiherpetic Properties of Polyphenolic Compounds from Maackia amurensis Heartwood” (Molecules, 2023).
Several values for one entry are separate records, joined by “and”; a condition that tells them apart may be missing. Equal entries are not always repeated.

Tests used:
[1] = DPPH radical scavenging assay; settings: 20 min; for IC50: read-out: DPPH Scavenging Effect IC50
Protocol: The DPPH (2,2-diphenyl-1-picrylhydrazyl) scavenging effect of polyphenolic compounds 1-6 from M. amurensis heartwood was evaluated as described previously in [40]. Stilbenes were added to DPPH solution in MeOH (10^−4 M) at a concentration range from 1 to 34 µM. The mixture was kept in the dark at room temperature for 20 min. Then, we measured the absorbance at 517 nm using a Shimadzu UV 1240 spectrophotometer (Shimadzu, Kyoto, Japan). The DPPH radical-scavenging effect (%) of the stilbenes was calculated using Equation (1): (1) DPPH scavenging effect, %=A0−Ax/A0×100, where: • A0 is the absorbance of DPPH solution without polyphenolic compounds (blank sample); • Ax is the absorbance of DPPH solution in the presence of different concentrations of polyphenolic compounds.
Quercetin and ascorbic acid were used as reference compounds. All experiments were performed in triplicate. The half maximal inhibitory concentration (IC50) for polyphenolic compounds was calculated by plotting the DPPH scavenging effect (%) against the concentrations of polyphenolic compounds. IC50 values are given as the mean ± SEM.

[2] = system: PQ-treated Neuro-2a cells; assay: Intracellular ROS level in PQ-treated cells (H2DCF-DA); type: cell-based, murine; settings: 10 μM, PQ 1 mM
Protocol: After 24 h of adhesion, Neuro-2a cells (1 × 10^4 cells/well) were incubated with stilbenes (0.01–10 µM) for 1 h. After that, we added PQ (1 mM) to each well and incubated the cells for 3 h. To study ROS formation, we added 20 µL of 2,7-dichlorodihydrofluorescein diacetate solution ([…], H2DCF-DA, Molecular Probes, Eugene, OR, USA) to each well, so that the concentration was 10 µM, and kept the microplate in a CO2–incubator for additional 30 min at 37 °C.

[3] = Cytotoxicity against Vero cells (MTT assay); type: cell-based; settings: African green monkey (Chlorocebus sp.)
Protocol: The HSV-1 strain L2 and Vero cell culture (kidney epithelial cells of the African green monkey Chlorocebus sp.) were obtained from the N.F. Gamaleya Federal Research Centre for Epidemiology and Microbiology (Moscow, Russia). HSV-1 was grown in Vero cells, using Dulbecco′s Modified Eagle′s Medium (DMEM, Biolot, St. Petersburg, Russia) supplemented with 10% fetal bovine serum (FBS, Biolot, St. Petersburg, Russia) and 100 U/mL of gentamycin (Dalkhimpharm, Khabarovsk, Russia), at 37 °C in a CO2 incubator. In the maintenance medium, the FBS concentration was decreased to 1%.
The tested compounds were dissolved in DMSO (Sigma, St. Louis, MO, USA) at a concentration 10 mg/mL and stored at −20 °C. For cytotoxicity and anti-HSV-1 activity determination, the stock solutions were diluted with DMEM so that the final concentration of DMSO was 0.5%.
The cytotoxicity evaluation of the studied compounds was performed using the MTT assay, as described previously. In brief, confluent Vero cells in 96-well microplates (1 × 10^4 cells/well) were incubated with tested compounds at various concentrations (1–500 μg/mL) at 37 °C for 48 h (5% CO2). Untreated cells were used as controls. Then, MTT solution (methylthiazolyltetrazolium bromide, Sigma, St. Louis, MO, USA) was added to cells at a concentration of 5 mg/mL and the cells were incubated at 37 °C for 2 h. After dissolution of formazan crystals, optical densities were read at 540 nm (Labsystems Multiskan RC, Vantaa, Finland). […] [42]. Experiments were performed in triplicate and repeated three times.

[4] = system: PQ-treated Neuro-2a cells; assay: Mitochondrial membrane potential in PQ-treated cells (TMRM); type: cell-based, murine; settings: 10 μM
Protocol: […] Then, we added PQ (500 μM) and kept the cell suspension in a CO2-incubator for 1 h. Cells incubated without PQ and stilbenes and with PQ only were used as positive and negative control, respectively. We added the tetramethylrhodamine methyl (TMRM) (Sigma-Aldrich, St. Louis, MO, USA) solution (500 nM) to each well and kept the cells for 30 min in a CO2-incubator at 37 °C. The intensity of fluorescence was measured with a PHERAstar […] reader (BMG Labtech, Ortenberg, Germany) at λex = 540 nm and λem = 590 nm. We processed the data by MARS Data Analysis v. 3.01R2 (BMG Labtech, Ortenberg, Germany) and presented the results as percentages of the positive control value.

Row | Structure (SMILES) | DPPH Scavenging Effect IC50 [1] [µg] | IC50 [1] [µM] | Reduction of intracellular ROS level in PQ-treated cells [2] [%] | CC50 at 48 h [3] | Increase of mitochondrial membrane potential compared to PQ-treated cells [4] [%]
1 | COc1ccc([C@@H]2COc3cc(O)ccc3[C@H]2c2c(O)cc(O)cc2/C=C/c2ccc(O)c(O)c2)c(O)c1 [Compound 1] | 2.25 ± 0.25 | 4.3 ± 0.5 | 17 | 162 µg/mL and 316 µM | 
2 | Oc1ccc(/C=C/c2cc(O)cc3c2[C@H](c2cc(O)cc(O)c2)[C@@H](c2ccc(O)c(O)c2)O3)cc1 [Compound 4, scirpusin A] | 1.50 ± 0.19 | 3.2 ± 0.4 | 7 | 199 µg/mL and 424 µM | 26
